{"source": "paper PMC12567141", "about": "“Design, Synthesis and Biological Evaluation of Pyrazolopyrimidine Derivatives as Aryl Hydrocarbon Receptor Antagonists for Colorectal Cancer Immunotherapy” (Pharmaceutics, 2025)", "key": {"[1]": {"tested_on": "colorectal cancer cells", "experiment": "Cell viability assay (CCK-8), colorectal cancer cells", "type": "cell-based", "conditions": "24 h", "procedure": "Chinese hamster ovary CHO cells, mouse fibroblast L929 cells, normal colon CCD18-Co cells, monkey kidney fibroblast COS-7 cells, colorectal cancer cells including HCT-116, RKO, SW480, SW620, CT26, and MC38 cells were purchased from ATCC (American Type Culture Collection). CHO, L929, Cos-7, and all cancer cells were maintained in RPMI 1640 or DMEM supplemented with 10% FBS (Gibco FBS; Thermo Fisher Scientific, Hanover Park, IL, USA) and 1% streptomycin/penicillin. CCD18-Co cells were cultured in high-glucose Dulbecco modified Eagle medium containing 10% FBS and 1% streptomycin/penicillin. All cells were grown in 5% CO2 at 37 °C. Mycoplasma testing was regularly performed every month using the BioMycoX Mycoplasma PCR Detection Kit (CellSafe, Yongin, Republic of Korea).\nCell viability was analyzed using a Cell Counting Kit-8 (Dojindo molecular technologies, Rockville, MD, USA). Cells were seeded in 96-well plates and treated with different concentrations of 7k. At the indicated time points, CCK-8 (10 μL/well) reagents were added to the cells, followed by further incubation at 37 °C for 90 min. The absorbance at 450 nm was measured using a plate reader (BioTek instruments, Winooski, VT, USA)."}, "[2]": {"tested_on": "MC38 and CT26 cells", "experiment": "Apoptosis analysis (Annexin V / propidium iodide)", "type": "cell-based", "conditions": "24 h treatment", "procedure": "Cells were washed with PBS containing 1% horse serum and stained with the FITC-Annexin V Apoptosis Detection Kit I (BD Biosciences) at room temperature for 30 min in the dark. DNA content, cell-cycle profiles, and forward scatter profiles were determined using the Becton Dickinson LSRFortessa^TM and analyzed with FlowJo software v11."}, "[3]": {"tested_on": "AhR, AhRR, and IDO-1 mRNA expression in MC38 and CT26 cells", "experiment": "qRT-PCR of AhR downstream genes in kynurenine-stimulated cells", "type": "cell-based", "conditions": "200 μM kynurenine-stimulated MC38 and CT26 cells, 24 h, qPCR", "procedure": "MC38 and CT26 were treated with different concentrations of 7k and 200 μM Kynurenine for 24 h. RNA from treated cells was extracted and cDNA was synthesized using the ReverTraAce™ qPCR RT Kit (TOYOBO, Osaka, Japan), followed by evaluation of AhR, AhRR, and IDO-1 mRNA expression with quantitative real-time PCR. PCR conditions were 95 °C preincubation, maintained for 1 min, and then 1 cycle of 95 °C denaturation for 15 s, 55 °C annealing for 15 s, and 72 °C polymerization for 45 s. A total of 40 cycles were repeated. Advanced Relative Quantification analysis was used to confirm the structure of the expected quantitative real-time PCR product, and the variability of other gene amplification was calibrated by relative comparison with GAPDH expression (Table 1)."}, "[4]": {"tested_on": "PD-L1 expression in MC38 and CT26 cancer cells", "experiment": "PD-L1 expression by FACS in IFNγ-treated colorectal cancer cells", "type": "cell-based", "procedure": "For analysis of PD-L1 expression in colorectal cancer cells, MC38 in 24-well plates were treated with IFNγ (10 ng/mL) for 24 h and incubated with 5 and 10 μM for 24 h. Cells were collected and stained with APC-conjugated PD-L1 Ab at 4 °C for 30 min (BioLegend). After washing with FACS buffer (Biolegend) three times, the cells were analysed using Becton Dickinson LSRFortessa^TM and analyzed with FlowJo software. Isotype-matched monoclonal antibodies were used as controls. The data were analysed using Flowjo analysis software (FlowJo LLC, Ashland, OR, USA)."}, "[5]": {"tested_on": "CT26 tumor", "experiment": "In vivo therapy, CT26 syngeneic model", "parameters": "species or system mice", "procedure": "(§1) In vivo experiments were conducted using 6-week-old male immunocompetent BALB/c and C57BL/6 with 18–20 g body weight (Orient Bio Inc., Seungnam, Republic of Korea). All animal experimental procedures were maintained and used in accordance with the Guidelines for the Care and Use of Laboratory Animals of the Institute of Laboratory Animal Center, Daegu-Gyeongbuk Medical Innovation Foundation (K-MEDI hub). The animal studies were conducted after approval by the institutional reviewer board on the Ethics of Animal Experiments of the Daegu-Gyeongbuk Medical Innovation Foundation (approval number: KMEDI-24041103-01).\n(§2) Study 1: Antitumor activity of 7k alone in mice with either CT26 syngeneic model or MC38 syngeneic model. Mice were subcutaneously challenged with 5 × 10^5 either MC38 or CT26 cells. When tumor formation was detected via inspection and palpation, 7k treatment was initiated once a day for 14 days by oral gavage.\n(§3) Study 2: Antitumor activity of combination with anti-PD1 and 7k in CT26 tumor bearing mice. Mice were subcutaneously challenged with 5 × 10^5 CT26 cells. Tumor bearing mice were divided into four groups as following; Group 1: vehicle, Group 2: 10 mg/kg anti-PD1, Group 3: 10 mg/kg 7k, and Group 4: 10 mg/kg anti-PD1 + 10 mg/kg 7k. 7k was administered by oral gavage once daily. Anti-PD1 antibody (clone RPM1-14, Bio X cell, Lebanon, NH, USA) was injected intraperitoneally every 3 days for 4 doses.\nThe 7k was dissolved in solution including 5% DMSO, 55% DW, and 40% PEG. Tumor size was measured with a caliper at the indicated time points, and tumor volume (mm^3) was calculated using the following formula, tumor volume (mm^3) = d2 × D/2, where d and D are the shortest and longest diameters in mm, respectively."}, "[6]": {"experiment": "Body weight during in vivo therapy", "conditions": "7k-treated tumor-bearing mice during in vivo therapy", "procedure": "as §1, §2\nas §3, with “Anti-PD1 antibody (clone RPM1-14, Bio X cell, Lebanon, NH, USA) was injected intraperitoneally every 3 days for 4 doses.” left out"}}}
{"smiles": "CC(C)n1cc2nc(-c3cc(F)cc(F)c3)nc(NCCc3c[nH]c4ccccc34)c2n1", "note": "[Compound 7k, N-(2-(1H-indol-3-yl)ethyl)-5-(3,5-difluorophenyl)-2-isopropyl-2H-pyrazolo [4,3-d]pyrimidin-7-amine]", "values": [{"measurement": "cell proliferation / viability of colorectal cancer cells", "setting": "[1]", "result": "dose-dependent decrease in cell proliferation"}, {"measurement": "apoptosis", "setting": "[2]", "result": "increase in apoptosis"}, {"measurement": "expression levels of AhR, AhRR, and IDO-1", "setting": "[3]", "result": "reduced the expression levels of AhR, AhRR, and IDO-1"}, {"measurement": "PD-L1 expression", "setting": "[4]", "result": "dose-dependent downregulation of PD-L1 expression"}, {"measurement": "tumor growth inhibition (TGI)", "setting": "[5]; CT26 model, combination study, 7k 10 mg/kg oral daily 14 days, anti-PD1 10 mg/kg i.p. every 3 days x4", "result": 49, "unit": "%"}, {"measurement": "tumor weight", "setting": "[5]; CT26 tumor bearing mice, vs vehicle-treated mice (Figure S4)", "result": "significantly lower"}, {"measurement": "tumor growth inhibition (TGI)", "setting": "[5]; CT26 tumor-bearing mice, single agent, 10 mg/kg oral once a day for 14 days", "result": 33, "unit": "%"}, {"measurement": "body weight", "setting": "[6]", "result": "No abnormal reduction in body weight"}]}
